In publication PMC9495235, “New MraYAA Inhibitors with an Aminoribosyl Uridine Structure and an Oxadiazole” (Antibiotics, 2022):
“Also recorded” adds a separate entry of the source.

What was measured:
[1] = test system: Staphylococcus aureus ATCC 25923; test: Antibacterial activity (CMI); format: cell-based; settings: Gram +
Experimental: (§1) The antibacterial activity of MraY inhibitors 12a–12h was also evaluated against several bacterial strains. Gram-negative (E. coli ATCC 8730, C. freundii ATCC8090 and P. aeruginosa ATCC 27853) and Gram-positive pathogenic bacterial strains (S. aureus ATCC 25923 and E. faecium ATCC 19434), including a methicillin-resistant strain (S. aureus MRSA ATCC 43300), were selected as a representative of pathogen bacterial diversity. Piperacillin and vancomycin were used as positive control in the tests.
(§2) Antibacterial activity was determined as previously described, but molecules were solubilized in 100% DMSO (cell culture grade) at 1 mg/mL concentration and 10-fold diluted in MHB just before utilization. The MHB-diluted solutions were then serially diluted in 5% DMSO-MHB, at final concentrations ranging from […] for compounds and 6.25 to 5% for DMSO.
(§3) Table S1. Antibacterial activity of compounds 12a-12i, and reference compounds.
(§4) final concentration tested

[2] = test system: Staphylococcus aureus MRSA ATCC 43300; test: Antibacterial activity (CMI); format: cell-based; settings: Gram +
Experimental: as §1, §2, §3, §4

[3] = test system: Citrobacter freundii ATCC 8090; test: Antibacterial activity (CMI); format: cell-based; settings: Gram -
Experimental: as §1, §2, §3, §4

[4] = test system: Pseudomonas aeruginosa ATCC 27853; test: Antibacterial activity (CMI); format: cell-based; settings: Gram -
Experimental: as §1, §2, §3, §4

[5] = test system: Enterococcus faecium ATCC 19434; test: Antibacterial activity (CMI); format: cell-based; settings: Gram +
Experimental: as §1, §2, §3, §4

[6] = test system: Escherichia coli ATCC 8730; test: Antibacterial activity (CMI); format: cell-based; settings: Gram -
Experimental: as §1, §2, §3, §4

[7] = target: T1, MraY transferase purified from Aquifex aeolicus (MraYAA) (Aquifex aeolicus, UniProt O66465); test: Inhibition of MraYAA transferase activity; format: biochemical; settings: for IC50: read-out: IC50 against MraYAA
T1 construct: His; made in house
Experimental: The inhibitory activity of the synthesized compounds 12a–12j was evaluated on MraY transferase purified from Aquifex aeolicus (MraYAA) prepared as previously described by Chung et al.. Their activity (Table 4) was compared to the inhibitory activity of the N-triazole-containing inhibitor 13 (Figure 3) that we previously synthesized (Table 4). Commercially available tunicamycin from Streptomyces sp. was used as a positive control in the test.
The inhibitory activity of the synthesized compounds 1–5 was determined as described in reference except that compounds were tested at a final concentration of 10% DMSO. The compounds were evaluated on His-tagged MraY transferase purified from Aquifex aeolicus (MraYAA) prepared as previously described by Chung et al.. The assays were performed as previously described by Stachyra et al..

[8] = Solubility in 5%DMSO-water (culture media); format: physicochemical; settings: at the highest final concentration tested
Experimental: as §2, §3, §4

[9] = final concentration of 10% DMSO, triplicate, repeated at least twice (tunicamycin tested twice)

T1 sequence (O66465 whole entry): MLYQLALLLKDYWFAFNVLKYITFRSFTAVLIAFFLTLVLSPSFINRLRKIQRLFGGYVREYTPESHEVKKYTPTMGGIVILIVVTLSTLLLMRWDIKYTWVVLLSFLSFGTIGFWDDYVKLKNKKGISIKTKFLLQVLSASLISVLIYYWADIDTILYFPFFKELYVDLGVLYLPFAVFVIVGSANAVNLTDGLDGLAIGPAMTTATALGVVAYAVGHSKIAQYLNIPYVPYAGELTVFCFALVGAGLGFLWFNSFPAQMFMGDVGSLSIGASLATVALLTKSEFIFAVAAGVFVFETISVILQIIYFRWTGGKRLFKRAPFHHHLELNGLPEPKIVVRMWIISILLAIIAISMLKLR

With `CCCCCCCCCCCCCCCc1nc(C[C@H](O[C@@H]2O[C@H](CN)[C@@H](O)[C@H]2O)[C@H]2O[C@@H](n3ccc(=O)[nH]c3=O)[C@H](O)[C@@H]2O)no1.O=C(O)C(F)(F)F` [Compound 12b] the CMI [1] was greater than 50 µg/mL, the CMI [2] was greater than 50 µg/mL and the CMI [3] was greater than 50 µg/mL. For the same compound, the CMI [4] was greater than 50 µg/mL, the CMI [5] was greater than 50 µg/mL and the CMI [6] was greater than 50 µg/mL. For the same compound, the IC50 [7, 9] was 9.3 ± 0.2 µM.
Work on `CCCCCCCCCCc1cn(C[C@H](O[C@@H]2O[C@H](CN)[C@@H](O)[C@H]2O)[C@H]2O[C@@H](n3ccc(=O)[nH]c3=O)[C@H](O)[C@@H]2O)nn1` [Compound 13, reference compound] yielded an IC50 [7, 9] of 1.1 µM.
Compound `CCCCCCCC/C=C/CCCCCCCc1nc(C[C@H](O[C@@H]2O[C@H](CN)[C@@H](O)[C@H]2O)[C@H]2O[C@@H](n3ccc(=O)[nH]c3=O)[C@H](O)[C@@H]2O)no1.O=C(O)C(F)(F)F` [Compound 12f] has a CMI [1] of 50 µg/mL, a CMI [2] of 50 µg/mL and a CMI [3] greater than 50 µg/mL. It also gave a CMI [4] greater than 50 µg/mL, a CMI [5] of 50 µg/mL and a CMI [6] greater than 50 µg/mL. The “solubility in 5%DMSO-water (culture media)” value (shortened to “solubility in 5%DMSO-water”) [8] was “insoluble” and the IC50 [7, 9] was 17.3 ± 0.3 µM.
`CCN1CCN(C(=O)N[C@@H](C(=O)N[C@@H]2C(=O)N3[C@@H]2SC(C)(C)[C@@H]3C(=O)O)c2ccccc2)C(=O)C1=O` [Piperacillin, reference compound] gave a CMI [1] of 4 µg/mL, a CMI [2] greater than 128 µg/mL and a CMI [3] of 4 µg/mL. It also gave a CMI [4] of 8 µg/mL, a CMI [5] of 4 µg/mL and a CMI [6] of 4 µg/mL.
For `CCCCCCCCCC(C(=O)O)c1nc(C[C@H](O[C@@H]2O[C@H](CN)[C@@H](O)[C@H]2O)[C@H]2O[C@@H](n3ccc(=O)[nH]c3=O)[C@H](O)[C@@H]2O)no1` (some centres unmarked) [Compound 12j], the IC50 [7, 9] was 2.9 ± 0.6 µM and the “activity relative to the parent ester” value ([7]; relative to parent ethyl ester (12h), MraYAA) was “almost tenfold more active”.
In the case of `CCCCCCCCCCC(CCCCCCCCCC)c1nc(C[C@H](O[C@@H]2O[C@H](CN)[C@@H](O)[C@H]2O)[C@H]2O[C@@H](n3ccc(=O)[nH]c3=O)[C@H](O)[C@@H]2O)no1.O=C(O)C(F)(F)F` [Compound 12i], the CMI [1] is reported as greater than 50 µg/mL, the CMI [2] is reported as greater than 50 µg/mL and the CMI [3] is reported as greater than 50 µg/mL. For the same compound, the CMI [4] was greater than 50 µg/mL, the CMI [5] was greater than 50 µg/mL and the CMI [6] was greater than 50 µg/mL. The “solubility in 5%DMSO-water” value [8] was “insoluble” and the “IC50 against MraYAA” value [7, 9] was “no activity; also recorded: N.I. ^e”.
With `CN[C@H](CC(C)C)C(=O)N[C@H]1C(=O)N[C@@H](CC(N)=O)C(=O)N[C@H]2C(=O)N[C@H]3C(=O)N[C@H](C(=O)N[C@H](C(=O)O)c4cc(O)cc(O)c4-c4cc3ccc4O)[C@H](O)c3ccc(c(Cl)c3)Oc3cc2cc(c3O[C@@H]2O[C@H](CO)[C@@H](O)[C@H](O)[C@H]2O[C@H]2C[C@](C)(N)[C@H](O)[C@H](C)O2)Oc2ccc(cc2Cl)[C@H]1O` [Vancomycin, reference compound] the CMI [1] was 1 µg/mL, the CMI [2] was 1 µg/mL and the CMI [5] was 0.5 µg/mL.
For `CCCCCCCCCCCCCCCCCCc1nc(C[C@H](O[C@@H]2O[C@H](CN)[C@@H](O)[C@H]2O)[C@H]2O[C@@H](n3ccc(=O)[nH]c3=O)[C@H](O)[C@@H]2O)no1.O=C(O)C(F)(F)F` [Compound 12c], the CMI [1] was 50 µg/mL, the CMI [2] was 50 µg/mL and the CMI [3] was greater than 50 µg/mL. For the same compound, the CMI [4] was greater than 50 µg/mL, the CMI [5] was 50 µg/mL and the CMI [6] was greater than 50 µg/mL. For the same compound, the “solubility in 5%DMSO-water” value [8] was “insoluble” and the IC50 [7, 9] was 15.8 ± 1 µM.
Compound `NC[C@H]1O[C@@H](O[C@@H](Cc2noc(-c3ccc(Oc4ccccc4)cc3)n2)[C@H]2O[C@@H](n3ccc(=O)[nH]c3=O)[C@H](O)[C@@H]2O)[C@H](O)[C@@H]1O.O=C(O)C(F)(F)F` [Compound 12e] has a CMI [1] greater than 50 µg/mL, a CMI [2] greater than 50 µg/mL and a CMI [3] greater than 50 µg/mL. For the same compound, the CMI [4] was greater than 50 µg/mL, the CMI [5] was greater than 50 µg/mL and the CMI [6] was greater than 50 µg/mL. It also gave an IC50 [7, 9] of 3.2 ± 0.2 µM.
With `CCCCCCCCCC(C(=O)OCC)c1nc(C[C@H](O[C@@H]2O[C@H](CN)[C@@H](O)[C@H]2O)[C@H]2O[C@@H](n3ccc(=O)[nH]c3=O)[C@H](O)[C@@H]2O)no1` (mixture of isomers) [Compound 12h] the CMI [1] was greater than 50 µg/mL, the CMI [2] was greater than 50 µg/mL and the CMI [3] was greater than 50 µg/mL. The CMI [4] was greater than 50 µg/mL, the CMI [5] was greater than 50 µg/mL and the CMI [6] was greater than 50 µg/mL. The IC50 [7, 9] was 27.5 ± 0.7 µM.
In the case of Tunicamycin [reference compound], the IC50 [7, 9] is reported as 0.026 µM.
`NC[C@H]1O[C@@H](O[C@@H](Cc2noc(CCCCCCCCCc3ccccc3)n2)[C@H]2O[C@@H](n3ccc(=O)[nH]c3=O)[C@H](O)[C@@H]2O)[C@H](O)[C@@H]1O.O=C(O)C(F)(F)F` [Compound 12g] showed a CMI [1] greater than 50 µg/mL, a CMI [2] greater than 50 µg/mL and a CMI [3] greater than 50 µg/mL. For the same compound, the CMI [4] was greater than 50 µg/mL, the CMI [5] was greater than 50 µg/mL and the CMI [6] was greater than 50 µg/mL. The IC50 [7, 9] was 5.8 ± 0.1 µM.
With `CCCCCCCC/C=C\CCCCCCCc1nc(C[C@H](O[C@@H]2O[C@H](CN)[C@@H](O)[C@H]2O)[C@H]2O[C@@H](n3ccc(=O)[nH]c3=O)[C@H](O)[C@@H]2O)no1.O=C(O)C(F)(F)F` [Compound 12d] the CMI [1] was greater than 50 µg/mL, the CMI [2] was greater than 50 µg/mL and the CMI [3] was greater than 50 µg/mL. It also gave a CMI [4] greater than 50 µg/mL, a CMI [5] greater than 50 µg/mL and a CMI [6] greater than 50 µg/mL. The “solubility in 5%DMSO-water” value [8] was “insoluble” and the IC50 [7, 9] was 18.9 ± 0.9 µM.
With `CCCCCCCCCCc1nc(C[C@H](O[C@@H]2O[C@H](CN)[C@@H](O)[C@H]2O)[C@H]2O[C@@H](n3ccc(=O)[nH]c3=O)[C@H](O)[C@@H]2O)no1.O=C(O)C(F)(F)F` [Compound 12a] the CMI [1] was greater than 50 µg/mL, the CMI [2] was greater than 50 µg/mL and the CMI [3] was greater than 50 µg/mL. For the same compound, the CMI [4] was greater than 50 µg/mL, the CMI [5] was greater than 50 µg/mL and the CMI [6] was greater than 50 µg/mL. For the same compound, the IC50 [7, 9] was 0.8 ± 0.1 µM.
